# ChEMBL document CHEMBL3627603, “Helical peptide-polyamine and -polyether conjugates as synthetic ionophores” (Bioorg Med Chem, 2015)
# The source made the active and inactive calls. The calls are words filed in the database; no cut-off is given here. Starred links: 1 amine or outer side, 2 acyl side, 3 side chain; linkers in the order of their positions; H or OH if unused. Non-standard residues stand in square brackets, D forms with d. Residues, ends and D or L forms follow the SMILES beside them. *: point of attachment. HN(CH2CH2O)5CH2CH2NH = C(COCCOCCOCCOCCOCCN[*:2])N[*:1]; X1 = O=C(c1ccc(OP(=O)(O)O)cc1)*; Spermine = NCCCNCCCCNCCCN*; Aib = CC(C)(N)C(=O)O
# Tests used:
# [1] = Induction of lysis of large unilamellar vesicles containing 95:5 egg yolk phosphatidylcholine and phosphatidylglycerol assessed as calcein release at 0.22 mM treated at 400 to 1600 secs by fluorometric analysis; format: functional
# [2] = (§1) Ionophoric activity across large unilamellar vesicles containing 95:5 egg yolk phosphatidylcholine and phosphatidylglycerol assessed as apparent first order rate constant for H+ transport at 3% of total concentration of lipids at 25 degC measured after 20 mins by HPTS-based fluorescence assay (reference value: 2 x 10^-4/s); format: ADME
# [3] = Ionophoric activity across large unilamellar vesicles containing 95:5 egg yolk phosphatidylcholine and phosphatidylglycerol assessed as apparent first order rate constant for Na+ transport at 1% of total concentration of lipids at 25 degC measured every 30 mins over 14 hrs by 23Na+ NMR analysis; format: ADME
# [4] = as §1, with “2%” for “3%”; format: ADME
# [5] = system: Escherichia coli; experiment: Induction of inner membrane permeabilization of Escherichia coli ML-35 pYC constitutively expressing cytoplasmic beta-galactosidase/periplasmic beta-lastamase assessed as Gal-ONp hydrolysis at 64 uM by microplate reader analysis; format: functional, organism-based
# [6] = system: Candida albicans; experiment: Antifungal activity against Candida albicans clinical isolate after 48 hrs by broth microdilution method; format: functional
# [7] = system: Pseudomonas aeruginosa; experiment: Antibacterial activity against Pseudomonas aeruginosa ATCC 27853 after 24 hrs by broth microdilution method; format: functional; conditions: ATCC 27853, 24 h
# [8] = as §1, with “2.5%” for “3%”; format: ADME
# [9] = system: Escherichia coli; experiment: Antibacterial activity against Escherichia coli ATCC 25922 after 24 hrs by broth microdilution method; format: functional; conditions: ATCC 25922, 24 h
# [10] = system: Staphylococcus aureus; experiment: Antibacterial activity against Staphylococcus aureus 34 clinical isolate after 24 hrs by broth microdilution method; format: functional; conditions: Staphylococcus aureus, 34, 24 h
# [11] = system: Escherichia coli; experiment: Induction of outer membrane permeabilization of Escherichia coli ML-35 pYC constitutively expressing cytoplasmic beta-galactosidase/periplasmic beta-lastamase assessed as CENTA hydrolysis at 64 uM by microplate reader analysis; format: functional, organism-based
# [12] = system: Staphylococcus aureus; experiment: Antibacterial activity against methicillin-resistant Staphylococcus aureus 16 clinical isolate after 24 hrs by broth microdilution method; format: functional; conditions: Staphylococcus aureus, 16, 24 h
# [13] = as §1, with “1%” for “3%”; format: ADME
# [14] = as §1, with “1.5%” for “3%”; format: ADME
# [15] = as §1, with “0.5%” for “3%”; format: ADME
# [16] = system: Cryptococcus neoformans; experiment: Antifungal activity against Cryptococcus neoformans clinical isolate after 48 hrs by broth microdilution method; format: functional
# [17] = Ionophoric activity across large unilamellar vesicles containing 95:5 egg yolk phosphatidylcholine and phosphatidylglycerol assessed as apparent first order rate constant for Na+ transport at 2% of total concentration of lipids at 25 degC measured every 30 mins over 14 hrs by 23Na+ NMR analysis; format: ADME
# [18] = Ionophoric activity across large unilamellar vesicles containing 95:5 egg yolk phosphatidylcholine and phosphatidylglycerol assessed as apparent first order rate constant for Na+ transport at 3% of total concentration of lipids at 25 degC measured every 30 mins over 14 hrs by 23Na+ NMR analysis; format: ADME
# [19] = Ionophoric activity across large unilamellar vesicles containing 95:5 egg yolk phosphatidylcholine and phosphatidylglycerol assessed as apparent first order rate constant for Na+ transport at 0.2% of total concentration of lipids at 25 degC measured every 30 mins over 14 hrs by 23Na+ NMR analysis; format: ADME
# [20] = Ionophoric activity across large unilamellar vesicles containing 95:5 egg yolk phosphatidylcholine and phosphatidylglycerol assessed as apparent first order rate constant for Na+ transport at 1.5% of total concentration of lipids at 25 degC measured every 30 mins over 14 hrs by 23Na+ NMR analysis; format: ADME
# [21] = Ionophoric activity across large unilamellar vesicles containing 95:5 egg yolk phosphatidylcholine and phosphatidylglycerol assessed as apparent first order rate constant for Na+ transport at 0.5% of total concentration of lipids at 25 degC measured every 30 mins over 14 hrs by 23Na+ NMR analysis; format: ADME
# [22] = system: Escherichia coli; experiment: Induction of outer membrane permeabilization of Escherichia coli ML-35 pYC constitutively expressing cytoplasmic beta-galactosidase/periplasmic beta-lastamase assessed as CENTA hydrolysis at 256 uM by microplate reader analysis; format: functional, organism-based
# [23] = system: Escherichia coli; experiment: Induction of inner membrane permeabilization of Escherichia coli ML-35 pYC constitutively expressing cytoplasmic beta-galactosidase/periplasmic beta-lastamase assessed as Gal-ONp hydrolysis at 256 uM by microplate reader analysis; format: functional, organism-based
SMILES,Activity [1],Activity [3],Kapp [4],MIC [6],MIC [7],Kapp [8],MIC [9],MIC [10],MIC [12],Kapp [13],Kapp [14],Kapp [15],MIC [16],other results
CC(C)(NC(=O)c1ccc(OP(=O)(O)O)cc1)C(=O)NC(C)(C)C(=O)NC(C)(C)C(=O)NC(C)(C)C(=O)NC(C)(C)C(=O)NC(C)(C)C(=O)NC(C)(C)C(=O)NC(C)(C)C(=O)NCCCNCCCCNCCCN (X1-[Aib][Aib][Aib][Aib][Aib][Aib][Aib][Aib]-Spermine),inactive,Not Active,1.98 ×10⁻² /s,32 µM,64 µM,3.62 ×10⁻² /s,32 µM,16 µM,32 µM,5.24 ×10⁻³ /s,1.73 ×10⁻² /s,4.08 ×10⁻³ /s,16 µM,Kapp [2]: 6.77 ×10⁻² /s; Activity [5]: Active; Activity [11]: Active
CC(C)(NC(=O)c1ccc(OP(=O)(O)O)cc1)C(=O)NC(C)(C)C(=O)NC(C)(C)C(=O)NC(C)(C)C(=O)NC(C)(C)C(=O)NC(C)(C)C(=O)NC(C)(C)C(=O)NC(C)(C)C(=O)NCCOCCOCCOCCOCCOCCN (X1-[Aib][Aib][Aib][Aib][Aib][Aib][Aib][Aib]-{HN(CH2CH2O)5CH2CH2NH}),inactive,,2.59 ×10⁻² /s,> 128 µM,> 128 µM,4.89 ×10⁻² /s,> 128 µM,> 128 µM,> 128 µM,7.71 ×10⁻³ /s,1.78 ×10⁻² /s,4.96 ×10⁻³ /s,> 128 µM,Kapp [17]: 0.0102 min⁻¹; Kapp [3]: 0.0063 min⁻¹; Kapp [18]: 0.015 min⁻¹; Kapp [19]: 0.0017 min⁻¹; Kapp [20]: 0.0078 min⁻¹; Kapp [21]: 0.0037 min⁻¹; Activity [22]: inactive; Activity [23]: inactive
C[C@@H]1[C@H](O)[C@@H](C)/C=C/C=C/C=C/C=C/C=C/C=C/C=C/[C@H](O[C@@H]2O[C@H](C)[C@@H](O)[C@H](N)[C@@H]2O)C[C@@H]2O[C@](O)(C[C@@H](O)C[C@@H](O)[C@H](O)CC[C@@H](O)C[C@@H](O)CC(=O)O[C@H]1C)C[C@H](O)[C@H]2C(=O)O [AMPHOTERICIN B],,Active,,,,,,,,,,,,Activity [13]: Active
CC(C)[C@@H](CC[C@@H](C)[C@H]1CC[C@H]2[C@@H]3[C@H](O)C[C@H]4C[C@@H](NCCCNCCCCN)CC[C@]4(C)[C@H]3CC[C@]12C)OS(=O)(=O)O [SQUALAMINE],,,,4 µM,4 µM,,1 µM,1 µM,,,,,,
